# Laboratory results: publication PMC11154958, “Mechanism of Nitrone Formation by a Flavin-Dependent Monooxygenase” (Biochemistry, 2024)
# Several values for one entry are separate records, joined by “and”; a condition that tells them apart may be missing. Equal values may be shown once. Read-outs that look alike come from different tables or passages of the source.
# Columns and labels:
# OxaD D63A [1] = molecular target: T1, OxaD D63A (Penicillium oxalicum, UniProt A0A1B2TT15, D63A); test: Anaerobic stopped-flow, reductive-half reaction, D63A mutant; format: biochemical, Penicillium oxalicum F30; conditions: for kred2: slow phase
# oxidized OxaD = molecular target: T2, oxidized OxaD (Penicillium oxalicum, UniProt A0A1B2TT15); format: binding, Penicillium oxalicum F30; conditions: 15 μM oxidized OxaD, roquefortine C 0–40 μM, pH 7.6; read-out: apparent KD
# T2 sequence (A0A1B2TT15 1-467): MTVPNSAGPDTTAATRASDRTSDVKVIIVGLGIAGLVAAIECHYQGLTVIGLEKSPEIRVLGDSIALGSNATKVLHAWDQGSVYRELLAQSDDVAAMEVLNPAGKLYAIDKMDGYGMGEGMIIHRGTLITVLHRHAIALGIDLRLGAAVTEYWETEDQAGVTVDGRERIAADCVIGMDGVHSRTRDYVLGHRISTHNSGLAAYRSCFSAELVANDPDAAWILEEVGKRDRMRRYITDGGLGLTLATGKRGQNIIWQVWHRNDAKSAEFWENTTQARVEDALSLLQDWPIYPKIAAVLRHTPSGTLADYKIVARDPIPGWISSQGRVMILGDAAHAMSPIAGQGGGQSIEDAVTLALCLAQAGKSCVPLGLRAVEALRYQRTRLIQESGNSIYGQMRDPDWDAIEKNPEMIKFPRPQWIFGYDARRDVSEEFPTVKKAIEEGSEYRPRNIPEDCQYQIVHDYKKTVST
# Protocol: (§1) These methods were adapted from Abdelwahab et al., 2016.[29] […] The instrument was blanked with each concentration of roquefortine C prior to recording the enzyme–substrate complex spectra. Each solution was 200 μL and contained 15 μM of enzyme, and various roquefortine C concentrations (0–40 μM). Prior to recording the spectra, the enzyme was incubated on ice for 5 min with the substrate and the spectra were measured immediately following the incubation.
# oxidized D63A = molecular target: T3, oxidized D63A (Penicillium oxalicum, UniProt A0A1B2TT15, D63A); format: binding, Penicillium oxalicum F30; conditions: 15 μM oxidized D63A, roquefortine C 0–40 μM, pH 7.6; read-out: apparent KD
# T3 sequence (A0A1B2TT15 1-467 D63A): T2 sequence (A0A1B2TT15 1-467)
# Protocol: as §1
# OxaD [2] = molecular target: T4, OxaD (Penicillium oxalicum, UniProt A0A1B2TT15); design: method as in PMID 27505044; conditions: previous characterization; cited from earlier work
# OxaD [3] = molecular target: T4, OxaD; conditions: for kred2: slow phase
# Protocol: To remove oxygen from the enzyme sample, OxaD (or D63A) was degassed along with buffer solutions as previously described. The stopped-flow was incubated with an anaerobic solution of 0.6 μM glucose oxidase and 100 mM D-glucose in 100 mM sodium acetate, pH 5.0, overnight to remove any oxygen.[27] […] For all stopped-flow experiments, the concentrations listed are after mixing in the instrument. […] Absorbance changes between 200 and 800 nm were recorded. The decrease in absorbance at 446 nm was fit to eq 2 to obtain the observed rate constant of the fast phase (k1) and of the slow phase (k2). A446 is the absorbance at 446 nm, A is the amplitude of the phase, t is time, and C is the final absorbance at 446 nm. […] Oxygenated buffer was prepared by bubbling 30 cc/min (pressure regulated by a flowmeter) of 100% oxygen into the OxaD activity buffer on an ice bath for 1 h while stirring. The resulting oxygen solution has a concentration of 1.2 mM.[27] Oxidation of reduced OxaD or D63A was investigated at various concentrations of oxygen (100–600 μM) at room temperature. To obtain lower oxygen concentrations, the saturated oxygen solution was diluted with anaerobic buffer. Absorbance changes at 200–800 nm were recorded. Absorbance changes at 365 nm were fit to eq 4 to account for the absorbance increase and decrease. In eq 4, A365 is the absorbance values at 365 nm, A1 and A2 are the changes in absorbance related to a single phase, k1 is the rate of absorbance increase, and k2 is the rate of absorbance decrease. Absorbance increases at 446 nm were fit to eq 5, where A446 is the absorbance values at 446 nm, kobs is the observed rate and AΔ is the change in absorbance. In both eq 4 and eq 5, A0 is the initial absorbance and t is time. The bimolecular rate constant was determined using a linear equation. All data fitting was carried out with KaleidaGraph. Spectral deconvolution was carried out using a three-step model that accounted for the reduced enzyme–substrate complex, the enzyme-intermediate complex, and the final oxidized enzyme.
# OxaD D63A [4] = conditions: D63A vs OxaD
# Protocol: (§2) OxaD D63A (D63A from hereon) was expressed and purified using the same procedures as those described for OxaD.
# (§3) All oxygen consumption assays were performed using an Oxygraph+ system from Hansatech Instruments (Norfolk, U.K.). Assays were performed in 25 mM HEPES/Na^+ buffer, pH 7.6, 50 mM NaCl, 1% DMSO (750 μL total volume). […] Equation 1 was used to determine the turnover number (kcat) and Michaelis–Menten constant (KM).
# OxaD D63A [5] = molecular target: T1, OxaD D63A
# Protocol: as §2, §3
# mice = tested on: mice; design: method as in ref 11−14; conditions: mice exposed to roquefortine C; ref 11−14; cited from earlier work
# [6] = tested on: cytochrome P450s in the liver and kidneys; design: method as in PMID 16019806; conditions: likely through binding to the heme in the active site; cited from earlier work
# OxaD [7] = molecular target: T4, OxaD; test: Oxygen consumption assay, steady-state kinetics; conditions: OxaD 1 μM; pH 7.6, 1% DMSO; roquefortine C fixed 100 μM for cosubstrates; NADPH fixed 500 μM when roquefortine C varied
# Protocol: All oxygen consumption assays were performed using an Oxygraph+ system from Hansatech Instruments (Norfolk, U.K.). Assays were performed in 25 mM HEPES/Na^+ buffer, pH 7.6, 50 mM NaCl, 1% DMSO (750 μL total volume).
# [8] = design: method as in ref 18−20; conditions: ref 18−20; cited from earlier work
# [9] = tested on: human breast and leukemia cancer cell lines; design: method as in ref 18−20; conditions: ref 18−20; cited from earlier work
# OxaD D63A [10] = test: Anaerobic stopped-flow, reductive-half reaction, D63A mutant; format: biochemical, Penicillium oxalicum F30; conditions: D63A vs OxaD
# [11] = D63A 10 μM, 10 μM roquefortine C, fast phase
# [12] = D63A 10 μM, 10 μM roquefortine C
# [13] = OxaD 10 μM, 10 μM roquefortine C, fast phase, apparent
# [14] = OxaD 10 μM, 10 μM roquefortine C
compound,measurement,setting,value
C=CC(C)(C)[C@@]12C[C@H]3C(=O)N/C(=C/c4c[nH]cn4)C(=O)N3[C@@H]1Nc1ccccc12 [Roquefortine C],enhancement of kred in the presence of substrate,"OxaD D63A [1]; D63A, with vs without substrate",~50 fold
same,Kd,oxidized OxaD,6.9 µM and ~6.9 µM
same,Kd,oxidized D63A,6.4 ± 0.2 µM
same,Km,OxaD [2],0.071 µM
same,kcat,OxaD [2],0.017 s^–1
same,enhancement of kred by presence of roquefortine C,"OxaD [3]; OxaD, with vs without roquefortine C",120 fold
same,increase in kcat compared to OxaD,OxaD D63A [4]; oxygen consumption,~2 fold
same,Km,OxaD D63A [5]; pH 7.6,3.5 ± 0.9 µM
same,toxic effects in mice,mice,"cytotoxic, immunotoxic, neurotoxic, and lung inflammatory effects"
same,effect on cytochrome P450s,[6],deactivate cytochrome P450s in the liver and kidneys
same,Km,OxaD [7],3 ± 1 µM
same,kcat,OxaD [7],0.93 ± 0.07 s^–1
C=CC(C)(C)[C@]12C=C(O)C(=O)N3/C(=C/c4cnc[nH]4)C(=O)N[C@@]31N(O)c1ccccc12 [glandicoline B],antibacterial effects,[8],antibacterial effects
C=CC(C)(C)[C@]12C=C(OC)C(=O)N3/C(=C/c4c[nH]cn4)C(=O)N[C@@]31N(OC)c1ccccc12 [oxaline],antibacterial effects,[8],antibacterial effects
same,anticancer properties,[9],anticancer properties
(R)-[4-^2H]-NADPH,kred1,OxaD D63A [1]; [11],2.4 ± 0.08 s^–1
same,kred2,OxaD D63A [1]; [12],0.17 ± 0.01 s^–1
same,^Dkred (kinetic isotope effect on rate of reduction),"OxaD D63A [1]; D63A, 4 mM synthesized NADPH vs 4 mM (R)-[4-^2H]-NADPH",^Dkred = 3.60 ± 0.13
same,kred1,OxaD [3]; [13],9.1 ± 0.10 s^–1
same,kred2,OxaD [3]; [14],0.24 ± 0.05 s^–1
same,^Dkcat (kinetic isotope effect on kcat),"OxaD D63A [5]; D63A, synthesized NADPH vs (R)-[4-^2H]-NADPH",^Dkcat = 3.40 ± 0.38
Melegranin,anticancer properties,[9],anticancer properties
NADH,kred1,OxaD [3]; [13],43 ± 0.30 s^–1
same,kred2,OxaD [3]; [14],0.34 ± 0.01 s^–1
same,increase in KD(app) relative to NADPH,"OxaD [3]; OxaD, NADH vs NADPH",~3 fold
NADPH,decrease in kred compared to OxaD,OxaD D63A [10],~5 fold
same,kred1,OxaD D63A [1]; [11],9.0 ± 0.20 s^–1
same,kred2,OxaD D63A [1]; [12],0.18 ± 0.01 s^–1
same,kred1/KD(app),"OxaD D63A [1]; D63A, 10 μM roquefortine C",7.2 × 10^3 ± 1.4 × 10^3 M^–1·s^–1
same,kred1,"OxaD D63A [1]; D63A, No roquefortine C",0.17 ± 0.01 s^–1
same,kred1,OxaD [3]; [13],48 ± 0.80 s^–1
same,kred2,OxaD [3]; [14],0.39 ± 0.01 s^–1
same,kred1/KD(app),"OxaD [3]; OxaD, 10 μM roquefortine C",9.0 × 10^4 ± 2.0 × 10^3 M^–1·s^–1
same,kred1,"OxaD [3]; OxaD, No roquefortine C",0.40 ± 0.10 s^–1
same,increase in KM compared to OxaD,OxaD D63A [4],25 fold
NADPH [Synthesized NADPH],kred1,OxaD D63A [1]; [11],8.6 ± 0.14 s^–1
same,kred2,OxaD D63A [1]; [12],0.20 ± 0.04 s^–1
same,kred1,OxaD [3]; [13],45 ± 0.70 s^–1
same,kred2,OxaD [3]; [14],0.32 ± 0.02 s^–1
